Calls of active or inactive are those of the source. The calls are words filed in the database; no cut-off is given here.
Assays:
Histone deacetylase 1 = Histone deacetylase 1 (Homo sapiens, UniProt Q13547); test: Inhibition of HDAC1 (unknown origin) using Boc-Lys(Ac)-AMC as substrate incubated for 60 mins by fluorescence plate reader assay
[1] = molecular target: T1, Protein deacetylase HDAC6 (Homo sapiens, UniProt Q9UBN7); test: Inhibition of HDAC6 (unknown origin) using Boc-Lys(Ac)-AMC as substrate incubated for 60 mins by fluorescence plate reader assay
T1 sequence (Q9UBN7 whole entry): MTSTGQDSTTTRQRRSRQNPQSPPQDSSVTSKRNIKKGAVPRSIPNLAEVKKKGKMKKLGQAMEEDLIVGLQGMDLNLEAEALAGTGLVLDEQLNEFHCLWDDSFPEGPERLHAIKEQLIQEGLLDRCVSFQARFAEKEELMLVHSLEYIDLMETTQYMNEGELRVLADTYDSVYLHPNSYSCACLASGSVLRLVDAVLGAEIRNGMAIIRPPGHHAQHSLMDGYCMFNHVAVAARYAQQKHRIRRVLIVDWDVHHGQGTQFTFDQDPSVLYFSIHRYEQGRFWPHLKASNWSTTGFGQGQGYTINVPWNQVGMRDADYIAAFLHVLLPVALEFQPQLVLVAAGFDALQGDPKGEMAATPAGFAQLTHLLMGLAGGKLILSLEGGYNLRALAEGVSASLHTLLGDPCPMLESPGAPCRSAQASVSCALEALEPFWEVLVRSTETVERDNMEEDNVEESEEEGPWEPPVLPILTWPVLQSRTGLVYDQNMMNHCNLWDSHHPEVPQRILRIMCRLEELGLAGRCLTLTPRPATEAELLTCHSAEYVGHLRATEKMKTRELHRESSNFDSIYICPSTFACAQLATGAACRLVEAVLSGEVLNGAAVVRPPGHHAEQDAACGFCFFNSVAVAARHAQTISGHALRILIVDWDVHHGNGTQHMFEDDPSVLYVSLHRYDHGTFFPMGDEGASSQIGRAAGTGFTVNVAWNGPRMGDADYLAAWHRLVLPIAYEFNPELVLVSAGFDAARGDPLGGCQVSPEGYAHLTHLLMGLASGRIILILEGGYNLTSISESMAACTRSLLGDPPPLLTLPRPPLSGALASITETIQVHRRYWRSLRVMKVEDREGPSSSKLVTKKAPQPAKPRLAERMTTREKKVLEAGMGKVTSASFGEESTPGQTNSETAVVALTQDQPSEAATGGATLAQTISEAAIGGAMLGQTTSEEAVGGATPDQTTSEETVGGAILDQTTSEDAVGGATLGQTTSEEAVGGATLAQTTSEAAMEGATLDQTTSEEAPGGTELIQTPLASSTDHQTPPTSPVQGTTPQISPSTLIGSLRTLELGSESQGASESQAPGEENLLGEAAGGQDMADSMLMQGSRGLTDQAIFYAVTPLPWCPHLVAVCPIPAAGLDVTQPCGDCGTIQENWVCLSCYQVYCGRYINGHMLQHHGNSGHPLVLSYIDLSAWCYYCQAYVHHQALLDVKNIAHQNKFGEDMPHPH

A549 = test: Antiproliferative activity against human A549 cells assessed as reduction in cell viability incubated for 72 hrs by WST-8 assay; type: functional, cell-based; details: A549, 72 h
MDA-MB-231 = test: Antiproliferative activity against human MDA-MB-231 cells assessed as reduction in cell viability incubated for 72 hrs by WST-8 assay; type: functional, cell-based; details: MDA-MB-231, 72 h
SGC-7901 = test: Antiproliferative activity against human SGC-7901 cells assessed as reduction in cell viability incubated for 72 hrs by WST-8 assay; type: functional, cell-based; details: SGC-7901, 72 h
HCT-116 [2] = test: Antiproliferative activity against human HCT-116 cells assessed as reduction in cell viability incubated for 72 hrs by WST-8 assay; type: functional, cell-based; details: HCT-116, 72 h
HL-60 = test: Antiproliferative activity against human HL-60 cells assessed as reduction in cell viability incubated for 72 hrs by WST-8 assay; type: functional, cell-based; details: HL-60, 72 h
[3] = molecular target: T2, Histone deacetylase (Homo sapiens) (UniProt Q13547+O15379+Q9UBN7+Q92769+Q9UQL6+Q8WUI4+Q9BY41+Q96DB2+P56524+Q9UKV0+Q969S8); test: Inhibition of HDAC in human HCT-116 cells assessed as upregulation of acetylated H3 level at 0.1 to 1 uM incubated for 48 hrs by Western blot analysis; type: cell-based; details: dose 0.1-1 µM, DDE = dose-dependent effect
[4] = molecular target: T2, Histone deacetylase (Homo sapiens); test: Inhibition of HDAC in human HCT-116 cells assessed as upregulation of acetylated alpha-tubulin level 0.1 to 1 uM incubated for 48 hrs by Western blot analysis; type: cell-based; details: dose 0.1-1 µM, DDE = dose-dependent effect
HCT-116 [5] = test: Induction of apoptosis in human HCT-116 cells assessed as early apoptotic cells at 0.1 uM incubated for 48 hrs by Annexin V-FITC/propidium iodide staining-based flow cytometric analysis (reference value: 1.73 %); type: functional
HCT-116 [6] = test: Induction of apoptosis in human HCT-116 cells assessed as early apoptotic cells at 1 uM incubated for 48 hrs by Annexin V-FITC/propidium iodide staining-based flow cytometric analysis (reference value: 1.73 %); type: functional
HCT-116 [7] = test: Induction of apoptosis in human HCT-116 cells assessed as late apoptotic cells at 0.1 uM incubated for 48 hrs by Annexin V-FITC/propidium iodide staining-based flow cytometric analysis (reference value: 5.80 %); type: functional
HCT-116 [8] = test: Induction of apoptosis in human HCT-116 cells assessed as late apoptotic cells at 1 uM incubated for 48 hrs by Annexin V-FITC/propidium iodide staining-based flow cytometric analysis (reference value: 5.80 %); type: functional
HCT-116 [9] = test: Induction of apoptosis in human HCT-116 cells at 0.1 to 1 uM incubated for 48 hrs by Annexin V-FITC/propidium iodide staining-based flow cytometric analysis; type: functional, cell-based; details: dose 0.1-1 µM, DDE = dose-dependent effect
HCT-116 [10] = test: Induction of apoptosis in human HCT-116 cells assessed as increase in cleaved PARP level at 0.1 to 1 uM incubated for 48 hrs by Western blot analysis; type: functional, cell-based; details: dose 0.1-1 µM
HCT-116 [11] = test: Induction of cell cycle arrest in human HCT-116 cells assessed as accumulation of cells at G2/M phase at 0.1 to 1 uM incubated for 24 hrs by flow cytometry analysis; type: functional, cell-based; details: dose 0.1-1 µM, DDE = dose-dependent effect
HCT-116 [12] = test: Inhibition of colony formation in human HCT-116 cells at 3 to 10 nM drug medium changed every three days for 2 weeks by crystal violet staining based analysis; type: functional, cell-based; details: dose 3-10 nM, DDE = dose-dependent effect
HCT-116 [13] = test: Inhibition of colony formation in human HCT-116 cells assessed as reduction in number of colonies at 3 nM drug medium changed every three days for 2 weeks by crystal violet staining based analysis; type: functional, cell-based
HCT-116 [14] = test: Inhibition of colony formation in human HCT-116 cells assessed as reduction in size of colonies at 3 nM drug medium changed every three days for 2 weeks by crystal violet staining based analysis; type: functional, cell-based
HCT-116 [15] = test: Inhibition of colony formation in human HCT-116 cells assessed as blockage of anchor growth at 10 nM drug medium changed every three days for 2 weeks by crystal violet staining based analysis; type: functional; details: HCT-116, 336 h
HCT-116 [16] = test: Antitumor activity against human HCT-116 cells xenografted in BALB/c mouse assessed as inhibition of tumor growth at 20 mg/kg, ip adminstered once daily measured every three days for 15 days by vernier caliper method relative to control; type: functional; parameters: scale not given: the % may be the effect or the level left; details: time 15 day
HCT-116 [17] = test: Antitumor activity against human HCT-116 cells xenografted in BALB/c mouse assessed as inhibition of tumor growth at 40 mg/kg, ip adminstered once daily measured every three days for 15 days by vernier caliper method relative to control; type: functional; parameters: scale not given: the % may be the effect or the level left; details: time 15 day
[18] = Toxicity in BALB/c mouse assessed as body weight loss at 20 to 40 mg/kg, ip adminstered once daily for 15 days; type: organism-based; details: in vivo, 360 h, dose 20-40 mg/kg, time 15 day
[19] = Toxicity in BALB/c mouse assessed as drug tolerability at 20 to 40 mg/kg, ip adminstered once daily for 15 days; type: organism-based; details: in vivo, 360 h, dose 20-40 mg/kg, time 15 day
Mus musculus [20] = test: In vivo inhibition of HDAC in BALB/c mouse xenografted with HCT-116 cells assessed as upregulation of acetylated H3 expression at 20 to 40 mg/kg, ip for 15 days by Western blot analysis; type: functional, organism-based; details: dose 20-40 mg/kg, time 15.0 day, DDE = dose-dependent effect
Mus musculus [21] = test: In vivo inhibition of HDAC in HCT-116 cells xenografted in BALB/c mouse assessed as upregulation of alpha tubulin expression at 20 to 40 mg/kg, ip for 15 days by Western blot analysis; type: functional, organism-based; details: dose 20-40 mg/kg, time 15.0 day, DDE = dose-dependent effect

Histone deacetylase 1, sequence (Q13547 whole entry): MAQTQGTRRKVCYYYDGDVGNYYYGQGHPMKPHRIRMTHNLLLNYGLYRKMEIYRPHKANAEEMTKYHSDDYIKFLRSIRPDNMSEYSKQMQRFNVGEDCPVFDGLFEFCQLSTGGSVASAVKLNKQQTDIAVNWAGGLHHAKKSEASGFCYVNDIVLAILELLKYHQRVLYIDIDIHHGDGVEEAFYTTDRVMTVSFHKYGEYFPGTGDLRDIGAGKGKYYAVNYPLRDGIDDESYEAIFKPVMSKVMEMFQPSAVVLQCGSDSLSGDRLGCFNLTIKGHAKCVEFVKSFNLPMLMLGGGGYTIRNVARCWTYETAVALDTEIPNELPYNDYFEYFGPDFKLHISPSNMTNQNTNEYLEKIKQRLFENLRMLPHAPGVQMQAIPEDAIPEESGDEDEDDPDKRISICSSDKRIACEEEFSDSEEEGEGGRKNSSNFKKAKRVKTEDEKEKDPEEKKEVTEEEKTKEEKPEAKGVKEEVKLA

COc1ccc2c(c1)cc(C(=O)NC1C3CC4CC(C3)CC1C4)n2CCCCCCC(=O)NO (stereo unspecified)
IC50 (Histone deacetylase 1): 1.16 nM | IC50 [1]: 2.3 nM | IC50 (A549): 960 nM | IC50 (MDA-MB-231): 460 nM | IC50 (SGC-7901): 40 nM | IC50 (HCT-116 [2]): 140 nM | IC50 (HL-60): 20 nM | Activity [3]: Dde | Activity [4]: Dde | Activity (HCT-116 [5]): 2.59% | Activity (HCT-116 [6]): 3.34% | Activity (HCT-116 [7]): 29.9% | Activity (HCT-116 [8]): 48.8% | Activity (HCT-116 [9]): Dde | Activity (HCT-116 [10]): Active | Activity (HCT-116 [11]): Dde | inhibition (HCT-116 [12]): Dde | inhibition (HCT-116 [13]): Active | inhibition (HCT-116 [14]): Active | inhibition at 0.01 µM (HCT-116 [15]): 100% | Activity (HCT-116 [16]): 44.54% | Activity (HCT-116 [17]): 71.79% | Activity [18]: Non-Toxic | Activity [19]: Non-Toxic | Activity (Mus musculus [20]): Dde | Activity (Mus musculus [21]): Dde
